According to patent US11135228B2, “Cysteinyl-proresolving mediators that promote resolution of infection and organ protection” (THE BRIGHAM AND WOMEN'S HOSPITAL, priority 2014, dated 2021):
Entries after “also recorded” stand apart in the source; their conditions may differ.

How the values were obtained:
[1] = test system: E. coli; assay: Murine E. coli peritonitis: leukocyte counts, resolution indices, in vivo phagocytosis; set-up: species or system mouse; settings: for leukocyte phagocytosis of E. coli in vivo: co-administration of SCI and SCII 50 ng each, i.p.; for resolution of infections in mice: co-administration of equal amounts of SCI and SCII
Description: Murine Peritonitis: Mouse experiments were conducted in accordance with guidelines from Harvard Medical Area Standing Committee on Animals (protocol no. 02570). Mice were inoculated with E. coli (serotype 06:K2:H1) as in (11) and peritoneal exudates were collected by lavaging the peritoneal cavity with 4 ml of PBS (without calcium and magnesium) at the indicated intervals. Leukocytes were enumerated by light microscopy using nuclear morphology staining with Turks solution and flow cytometry probing for CD11b-PerCP/Cy5.5 (eBioscience, clone: M1/70), F4/80-PE (eBioscience, BM8) and Ly6G-FITC (eBioscience, clone: 1A8) as in (11). For product isolation, 24 h peritoneal exudates were collected and 2 volumes of ice-cold methanol were added. Isolates were obtained as detailed in the lipid mediator metabotolipidomics section.
In select experiments 12 h after E. coli inoculation, mice were administered either 100 ng of SCI and SCII (50 ng/each per mouse) or vehicle (saline containing 0.1% ethanol (EtOH)) via i.p. injection. Peritoneal exudates were then collected and leukocyte counts determined as above. Assessment of leukocyte phagocytosis of E. coli in inflammatory exudates was conducted as in (11). Briefly cells were incubated with anti-CD11b-Per(T/Cy5.5 conjugated antibody; subsequently the cells were permeabilized using BD Cytofix/Cytoperm™ Fixation/Permeabilization Kit following manufacturer's instructions; cells were then incubated with a FITC conjugated anti-E. coli antibody (GTX40856; GeneTex) and phagocytosis assessed as mean fluorescence in the CD11b- positive cell population.
Resolution indices were calculated as in (11) where Ψmax=the maximal PMN numbers in the exudates; Tmax=the time point when PMN numbers reach maximum; R50=50% of maximal PMN numbers; T50=the time point when PMN numbers reduce to 50% of maximum; Ri (resolution interval)=T50−Tmax, the time period when 50% PMN are lost from the exudates.

[2] = test system: Human macrophages; assay: Human macrophage efferocytosis of apoptotic PMN; format: cell-based; settings: 10 pM-100 nM, 15 min, then apoptotic PMN 45 min; planarian isolates likewise
Description: (§1) Leukocyte phagocytosis: Macrophages were prepared from peripheral blood mononuclear cells (PBMC) purchased from Children's Hospital Blood Bank, Boston, and phagocytosis was assessed as in (11). Briefly, macrophages (5×10^4 cells,/well) were incubated with SCI (10 pM-100 nM), SCII (10 pM-100 nM), MaR1 (10 pM-100 nM), or vehicle (0.1% EtOH in DPBS) for 15 min at 37° C., then fluorescent labeled apoptotic cells were added and cells incubated 45 min at 37° C. Extracellular fluorescence was quenched using Trypan blue (1:15 dilution) and phagocytosis assessed using an M3 SpectraMax plate reader. In select experiments, macrophages (5×10^4 cells/well) or neutrophils (1×10^5 cells/well) were obtained from human healthy volunteers' peripheral blood as in (11) in accordance with Partners Human Research Committee Protocol (#1999P001297), and incubated with H2DCFDA (5 μM, 30 min, 37° C.), then with SCI (10 pM-100 nM), SCI (10 pM-100 nM) or vehicle (0.1% EtOH in DPBS, 15 min, 37° C.) and E. coli (1:50 leukocytes to E. coli, 45 min, 37° C.) Intracellular reactive oxygen species were determined by measuring fluorescence using an M3 SpectraMax plate reader. To assess bacterial phagocytosis, macrophages (5×10^4 cells/well) or neutrophils (1×10^5 cells/well) were incubated with SCI (10 pM-100 nM), SCII (10 pM-100 nM) or vehicle (0.1% EtOH in DPBS, 15 min, 37° C.), then incubated with BacLight Green (Molecular Probes) labeled E. coli (1:50 leukocytes to E. coli, 45 min, 37° C.), Extracellular fluorescence was quenched using Trypan blue (1:15 dilution), and phagocytosis assessed using an M3 SpectraMax plate reader.
In determined experiments, human macrophages were incubated with SC isolates from regenerating planaria for 15 min at 37° C., then fluorescent labeled apoptotic cells were added and efferocytosis was assessed as detailed above.
Macrophage bacterial phagocytosis, efferocytosis, and phagolysosontal acidification: Human macrophages were plated in 96-well plates (5×10^4 cells per well) for 24 h, and phagocytosis or efferocytosis was assessed as in (14). In brief, apoptotic PMNs were obtained by culturing cells overnight in PBS^−/− (5×10^6 cells/ml). Apoptotic human PMNs were labeled with bisbenzimide H33342 trihydrochloride (Sigma-Aldrich). Human macrophages were incubated with 0.1-10 nM concentration of test products, and then labeled apoptotic PMNs were cocultured with macrophages for 40 min [37° C. […]]. Fluorescence was read on a SpectraMax M3 plate reader (Molecular Devices, Sunnyvale, Calif., USA), and results were analyzed using SoftMax Pro (Molecular Devices).

[3] = test system: Human macrophages; assay: Human macrophage phagocytosis of fluorescently labeled E. coli; format: cell-based; settings: 10 pM-100 nM, 15 min, then E. coli 45 min
Description: as §1
Macrophage phagocytosis was assessed using fluorescently labeled E. coli (serotype O6:K2;H1) with BacLight Green Bacterial Stain (Life Technologies, Eugene, Oreg., USA). E. coli [2.5×10^6 colony-forming units (CFL)/well] were then added to macrophages previously plated in 96-well plates (40 min at 37° C.) and incubated with 0.1-10 nM concentration of test compounds [15 min at 37° C. (pH 7.45)]. Fluorescence was measured on a SpectraMax M3 plate reader, and results were analyzed using SoftMax Pro.

[4] = test system: Human macrophages; assay: Human macrophage intracellular reactive oxygen species (H2DCFDA); format: cell-based; settings: 10 pM-100 nM, 15 min, then E. coli 45 min
Description: as §1, with “To assess bacterial phagocytosis, macrophages (5×10^4 cells/well) or neutrophils (1×10^5 cells/well) were incubated with SCI (10 pM-100 nM), SCII (10 pM-100 nM) or vehicle (0.1% EtOH in DPBS, 15 min, 37° C.), then incubated with BacLight Green (Molecular Probes) labeled E. coli (1:50 leukocytes to E. coli, 45 min, 37° C.), Extracellular fluorescence was quenched using Trypan blue (1:15 dilution), and phagocytosis assessed using an M3 SpectraMax plate reader.” left out

[5] = test system: Human neutrophils; assay: Human neutrophil intracellular reactive oxygen species (H2DCFDA); format: cell-based; settings: 10 pM-100 nM, 15 min, then E. coli 45 min
Description: as §1, with “To assess bacterial phagocytosis, macrophages (5×10^4 cells/well) or neutrophils (1×10^5 cells/well) were incubated with SCI (10 pM-100 nM), SCII (10 pM-100 nM) or vehicle (0.1% EtOH in DPBS, 15 min, 37° C.), then incubated with BacLight Green (Molecular Probes) labeled E. coli (1:50 leukocytes to E. coli, 45 min, 37° C.), Extracellular fluorescence was quenched using Trypan blue (1:15 dilution), and phagocytosis assessed using an M3 SpectraMax plate reader.” left out

Compound | leukocyte phagocytosis of E. coli in vivo [1] | resolution of infections in mice [1] | macrophage efferocytosis of apoptotic cells [2] | macrophage phagocytosis of E. coli [3] | macrophage intracellular reactive oxygen species [4] | neutrophil intracellular reactive oxygen species [5]
CCC=CCC=CCC(O)C(C=CC=CC=CCC=CCCC(=O)O)SCC(N)C(=O)NCC(=O)O (stereo not drawn) [SCII, 13-cysteinylglycinyl, 14-hydroxy-docosahexaenoic acid] | Stimulates mouse | Promotes resolution of | dose-dependently increased; also recorded: Stimulates human | enhanced; also recorded: Stimulates human | enhanced | enhanced
13-glutathionyl, 14-hydroxy-docosahexaenoic acid [SCI] | Stimulates mouse | Promotes resolution of | dose-dependently increased; also recorded: Stimulates human | enhanced; also recorded: Stimulates human | enhanced; also recorded: Stimulates human | enhanced; also recorded: Stimulates human
